Reference: patent US20130203659A1 (priority 2006, published 2013)
Read-outs that look alike come from different tables or passages of the source. Non-standard residues stand in square brackets, D forms with d. Primed or numbered codes have the meaning given here. No end group written: not given here. Aib′ = alpha aminobutyric acid (source's wording); 20k mPEG = methoxy-polyethylene glycol, 20 kDa; 20k PEG = polyethylene glycol, 20 kDa

Key:
[1] = tested on: db/db diabetic mouse model; experiment: Fed blood glucose in db/db diabetic mice; format: in vivo; conditions: for decrease of blood glucose levels over time (FIG. 13): 10 ug injected into each mouse
Description: The db/db mice are commercially available from The Jackson Laboratory JAX® GEMM® Strain—Spontaneous Mutation Congenic Mice, and are homozygous for the diabetes spontaneous mutation (Lepr^db). These mice become identifiably obese around 3 to 4 weeks of age. The criterion for selection for each mouse to enter the study was blood glucose of at least 300 mg/dL. Db/db mice at 8.5 weeks of age (for a chronic 1-2 wk study) to about 10-11 weeks of age (for an acute 1-3 day study) were injected once with each tested compound (acute experiment) or multiple times (chronic experiment). […] The mice were then placed in a fresh cage without any chow, so as to limit any variability in blood glucose levels associated with eating behaviors. Time points of 1 hr, 4 hr, 6 hr, and 24 hr were normally taken. When at the 24 hour time point blood glucose values were below where they started, further time points at every 24 hrs were taken until blood glucose returned to the baseline levels. Normal chow was given back after the 6 hr time point.
Tachyphylaxis was determined by multiple injections. A second injection of the compound was administered after the blood glucose levels sufficiently returned to starting baseline levels. At this point, it was evident whether the compound had the same effect/efficacy, or if there was any noticeable tachyphylaxis.

[2] = target: T1, human GLP-1 receptor (Homo sapiens, UniProt P43220); experiment: In vitro GLP-1 receptor binding (125I-GLP-1 ligand binding assay), human receptor
T1 construct: expressed in transfected cells; host or cells: CHOK1 cells with a cAMP-regulated luciferase reporter construct
Description: Cells were sedimented at 1500 rpm for 10 minutes. The resulting pellets were homogenized in 15 mls of ice cold sucrose buffer (25 mM Tris-HCl, 0.32 M Sucrose, 0.25 g/L sodium azide, pH 7.4) with a motorized, glass fitted, Teflon homogenizer. The homogenate was centrifuged at 48,000×g at 4° C. for 10 minutes, resuspended in 25 ml assay buffer (50 mM Tris-HCl, 5 mM MgCl2, 10 mg/ml protease-free BSA, 0.1 mg/ml STI, and 0.1 mg/ml Pefabloc, pH 7.4) with a Tissue-Tearor (Biospec Products), then centrifuged again at 48,000×g for 10 minutes. The pellets were homogenized for a third time in 15 ml assay buffer using the Tissue-Tearor and again centrifuged at 48,000×g for 10 minutes. The resulting pellet was resuspended in assay buffer at a wet weight concentration of 4 mg/ml.
Binding assays were performed in 96-well U-bottom plates. […] Bound radioactivity was determined using a TopCount microplate scintillation and luminescence counter (Packard Instrument Company, PerkinElmer, Shelton, Conn.). Nonlinear regression analyses of resulting concentration curves were performed using GraphPad Prism (GraphPad Software, Inc., San Diego, Calif.).

[3] = target: T1, human GLP-1 receptor; experiment: GLP-1R reporter assay (cAMP-regulated luciferase, CHOK1 cells), human receptor; format: cell-based; conditions: luciferase reporter, 6 hours exposure; read-out: EC50 human
Description: (§1) A. GLP-1R Reporter Assay:
(§2) Increased cAMP levels were measured through enhanced expression of a luciferase reporter gene. […] The evening prior to assay, the cells were washed, the medium replaced with serum-free medium containing 0.5% protease-free bovine serum albumin (BSA), and then cultured overnight. […] Cell lysates were assayed for luciferase activity using the Luciferase Assay System (Promega Corporation, Madison, Wis.). Luciferase activity was measured using a Luminoskan Ascent (Thermo Electron Corporation, Marietta, Ohio). Nonlinear regression analyses of resultant compound concentration curves were performed using GraphPad Prism (GraphPad Software, Inc., San Diego, Calif.).

[4] = target: T2, mouse GLP-1 receptor (Mus musculus, UniProt O35659); experiment: GLP-1R reporter assay (cAMP-regulated luciferase, CHOK1 cells), mouse receptor; format: cell-based; conditions: 6 hours exposure
T2 construct: expressed in transfected cells; host or cells: CHOK1 cells with a cAMP-regulated luciferase reporter construct
T2 sequence (O35659 22-463): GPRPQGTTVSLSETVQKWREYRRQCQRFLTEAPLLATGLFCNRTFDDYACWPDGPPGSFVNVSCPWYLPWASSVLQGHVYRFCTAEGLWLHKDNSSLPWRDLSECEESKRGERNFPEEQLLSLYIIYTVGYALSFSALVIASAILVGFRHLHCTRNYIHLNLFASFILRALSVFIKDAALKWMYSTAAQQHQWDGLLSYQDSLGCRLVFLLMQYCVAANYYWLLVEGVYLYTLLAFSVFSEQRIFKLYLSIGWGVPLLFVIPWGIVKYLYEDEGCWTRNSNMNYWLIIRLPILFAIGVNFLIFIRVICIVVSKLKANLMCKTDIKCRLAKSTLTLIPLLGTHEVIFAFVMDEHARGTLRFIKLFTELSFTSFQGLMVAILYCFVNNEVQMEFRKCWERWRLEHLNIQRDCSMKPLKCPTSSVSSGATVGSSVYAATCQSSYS
Description: as §1, §2

[5] = tested on: C57B16 (normal lean) mice; experiment: Blood glucose and intraperitoneal glucose tolerance test in C57B16 (normal lean) mice; format: in vivo, mouse
Description: C57B16 (normal lean) mice were used at 10 to 12 weeks of age. These mice are commercially available through any vendor, such as Jackson Laboratories or Charles River, and are considered to be normal. The term “lean” is used to contrast these mice to obese db/db mice. C57B16 mice were randomized on body weight. […] After 4-5 hrs, an intraperitoneal glucose tolerance test (glucose tolerance test measures the body's ability to metabolize glucose) was performed using 2 g/kg of glucose dose. Blood glucose levels were measured 30 min and 90 minutes after the glucose load was administered and 24 hours or until blood glucose levels were back to the original values.

T1 sequence (P43220 24-463): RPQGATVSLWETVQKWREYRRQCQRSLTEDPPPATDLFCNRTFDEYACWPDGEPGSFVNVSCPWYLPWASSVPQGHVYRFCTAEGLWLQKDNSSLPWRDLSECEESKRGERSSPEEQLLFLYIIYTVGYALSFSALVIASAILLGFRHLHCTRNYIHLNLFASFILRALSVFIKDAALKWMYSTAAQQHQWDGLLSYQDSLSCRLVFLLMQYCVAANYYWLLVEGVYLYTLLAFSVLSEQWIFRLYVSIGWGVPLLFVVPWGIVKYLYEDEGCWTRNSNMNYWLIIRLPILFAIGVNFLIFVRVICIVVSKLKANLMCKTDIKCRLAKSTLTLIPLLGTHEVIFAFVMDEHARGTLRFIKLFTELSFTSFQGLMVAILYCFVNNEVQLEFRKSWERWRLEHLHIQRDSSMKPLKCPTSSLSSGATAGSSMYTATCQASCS

cgGLP-18: SEQ ID NO: 12 + 20k PEG (HXEGTFTSDVSSYLEGQAAKEFIAWLVKGRGCSGG; 20k PEG)
ability to lower blood glucose over a 72 hour time span (FIG. 12) ([1]; relative to control): lowered blood glucose relative to control

CC[C@H](C)[C@H](NC(=O)[C@H](Cc1ccccc1)NC(=O)[C@H](CCC(=O)O)NC(=O)[C@H](CCCCN)NC(=O)[C@H](C)NC(=O)[C@H](C)NC(=O)[C@H](CCC(N)=O)NC(=O)CNC(=O)[C@H](CCC(=O)O)NC(=O)[C@H](CC(C)C)NC(=O)[C@H](Cc1ccc(O)cc1)NC(=O)[C@H](CO)NC(=O)[C@H](CO)NC(=O)[C@@H](NC(=O)[C@H](CC(=O)O)NC(=O)[C@H](CO)NC(=O)[C@@H](NC(=O)[C@H](Cc1ccccc1)NC(=O)[C@@H](NC(=O)CNC(=O)[C@H](CCC(=O)O)NC(=O)[C@H](C)NC(=O)[C@H](Cc1c[nH]cn1)NC(=O)[C@@H](N)[C@@H](C)O)[C@@H](C)O)[C@@H](C)O)C(C)C)C(=O)N[C@@H](C)C(=O)N[C@@H](Cc1c[nH]c2ccccc12)C(=O)N[C@@H](CC(C)C)C(=O)N[C@H](C(=O)N[C@@H](CCCCN)C(=O)NCC(=O)N[C@@H](CCCNC(=N)N)C(=O)O)C(C)C [T-GLP-1, T HAEGTFTSDVSSYLEGQAAKEFIAWLVKGR]
IC50 [2]: 53 nM | EC50 [3]: 0.3 nM | EC50 [4]: 2 nM

CC[C@H](C)[C@H](NC(=O)[C@H](Cc1ccccc1)NC(=O)[C@H](CCC(=O)O)NC(=O)[C@H](CCCCN)NC(=O)[C@H](C)NC(=O)[C@H](C)NC(=O)[C@H](CCC(N)=O)NC(=O)CNC(=O)[C@H](CCC(=O)O)NC(=O)[C@H](CC(C)C)NC(=O)[C@H](Cc1ccc(O)cc1)NC(=O)[C@H](CO)NC(=O)[C@H](CO)NC(=O)[C@@H](NC(=O)[C@H](CC(=O)O)NC(=O)[C@H](CO)NC(=O)[C@@H](NC(=O)[C@H](Cc1ccccc1)NC(=O)[C@@H](NC(=O)CNC(=O)[C@H](CCC(=O)O)NC(=O)[C@H](C)NC(=O)[C@H](Cc1c[nH]cn1)NC(=O)[C@H](CCSC)NC(=O)[C@@H](N)CCSC)[C@@H](C)O)[C@@H](C)O)C(C)C)C(=O)N[C@@H](C)C(=O)N[C@@H](Cc1c[nH]c2ccccc12)C(=O)N[C@@H](CC(C)C)C(=O)N[C@H](C(=O)N[C@@H](CCCCN)C(=O)NCC(=O)N[C@@H](CCCNC(=N)N)C(=O)O)C(C)C [MM-GLP1, MM HAEGTFTSDVSSYLEGQAAKEFIAWLVKGR]
IC50 [2]: 100 nM | EC50 [3]: 0.5 nM | EC50 [4]: 3 nM

cgGLP-23: SEQ ID NO: 17 + 20 k PEG (HGEGTFTSDVSSYLE[Aib′]QAAKEFIAWLVKGRGC(20k PEG)-NH2; not fully specified; printed as HGEGT FTSDV SSYLE ZQAAK EFIAW LVKGR GC-amide; also: Aib defined in source as alpha aminobutyric acid)
decrease of blood glucose levels over time (FIG. 13) [1]: significant decrease in blood glucose levels over a 48 hour time period

cgGLP-20: SEQ ID NO: 25 + 20 k mPEG (H[Aib′]EGTFTSDVSSYLE[Aib′]QAAKEFIAWLVKGRGC(20k mPEG)SG; not fully specified)
decrease of blood glucose levels over time (FIG. 13) [1]: significant decrease in blood glucose levels over a 48 hour time period

cgGLP-9: SEQ ID NO: 6 + 20k PEG dimer (HGEGTFTSDVSSYLEGCAAKEFIAWLVKGRG; not fully specified (residue 17); also: 20k PEG dimer)
IC50 ([2]; membranes of CHOK1 cells expressing human GLP-1 receptor, 0.2 nM 125I-GLP-1): > 1000 nM | EC50 [3]: 1 nM | EC50 [4]: 9 nM

mgGLP32: SEQ ID NO: 18 + 20 k PEG (HGEGTFTSDVSSYLE[Aib′]QAAKEFIAWLVKGRGC(20k PEG)A-NH2; not fully specified)
lowering of blood glucose levels (FIG. 14) ([1]; 10 ug per mouse): lowered blood glucose levels | time needed for blood glucose levels to return to normal levels ([1]; 10 ug/mouse): 72 h | lowering of blood glucose at different doses (FIG. 15) ([1]; 5 and 10 μg/mouse): lowered blood glucose levels for 24 hours in a dose dependent fashion | tachyphylaxis, multiple dose experiment ([1]; second bolus the next day): The same result was observed | tachyphylaxis after the 4th dose (FIG. 19) ([5]; 4-day multiple dose experiment): No tachyphylaxyis was observed after the 4th dose | blood glucose after injection, before the GTT (FIG. 16) ([5]; C57B16 mice, first 52 hours after injection): decreased blood glucose to the same extent during the first 52 hours | blood glucose during the 4 hour fast (FIG. 19) ([5]; multiple dose experiment): blood glucose was decreased during the 4 hour fast | blood glucose spike during first and second GTT (FIG. 19) ([5]; multiple dose experiment, GTT after first and 4th injection): no blood glucose spike was seen during the first and second GTT
